# From US9815842B2, “Pyrazolo pyrimidine derivatives and their use as MALT1 inhibitors” (Novartis AG, priority 2014, dated 2017)
# How the values were obtained:
# [1] = target: C-domain of MALT1 (amino acids 329-824) (Homo sapiens (Human), UniProt Q9UDY8); assay: MALT1 biochemical assay (fluorescence lifetime enzyme activity assay); conditions: 60 min pre-incubation, 2.5 nM enzyme, 1 μM peptide substrate
# Experimental: The readout parameter is the increase of fluorescence lifetime over time, proportional to enzyme activity.
# The assay employs a short peptide substrate labeled with the single fluorophore PT14 as a fluorescence lifetime probe sensitive to the cleavage state of the substrate (PT14: 6-(9-oxo-9H-acridin-10-yl)-hexanoate, AssayMetrics, UK). […] The assay buffer consists of 200 mM Tris/HCl at pH 7.5, 0.8 M Na citrate, 100 μM EGTA, 100 μM DTT and 0.05% (w/v) CHAPS. […] Test compounds were dissolved in 100% (v/v) DMSO or a mixture containing 90% (v/v) DMSO and 10% (v/v) H2O at a stock concentration of 100 mM. Serial dilutions of test compounds were prepared using either 100% (v/v) DMSO or a mixture containing 90% (v/v) DMSO and 10% (v/v) H2O.
# Human IL2 promoter = Human IL2 promoter reporter gene assay (RGA) in Jurkat cells; assay type: cell-based; conditions: Jurkat clone K22 290_H23, anti-CD28 mAb + PMA stimulation 5.5 h
# Experimental: Human IL2 Promoter Reporter Gene Assay (RGA) in Jurkat Cells
# The transfected Jurkat clone K22 290_H23 was propagated in RPMI 1640 supplemented with 10% heat inactivated fetal calf serum, 50 μM 2-mercaptoethanol and 1 mg/ml Geneticin. The cell concentration should not exceed 1×10e6/ml during culturing. The cells should not exceed passage 30. Prior to the assay the cells were washed and prepared to the concentration of 2×10e6 cells/ml.
# Compound dilutions were made as 2×-concentrated solutions then diluted 1/2 by addition to cells. Two hundred and fifty μl of compound dilution and 250 μl of cells were mixed together in wells of a 96-deep well plate. Cells/compounds premix were incubated 30 min at 37° C. and 5% CO2 directly in the deep well plate.
# After pre-incubation of cells with compounds, cells were stimulated with anti-CD28 mAb (clone 15E8) at 3 μg/ml+PMA at 1 μg/ml. Both co-stimulants were diluted in culture medium at a 10×-concentrated solution. 10 μl of co-stimulants were pipetted into the white 96-well plates and 100 μl of cell/compound mix was immediately added in duplicates. The cells were stimulated for 5.5 h at 37° C. and 5% CO2.
# After cell stimulation, 50 μl of BriteLitePlus reagent (Perkin Elmer) was added to each well and the bioluminescence was measured with a Wallac EnVision reader (Perkin Elmer).
# Sequence of C-domain of MALT1 (amino acids 329-824) (Q9UDY8 329-824): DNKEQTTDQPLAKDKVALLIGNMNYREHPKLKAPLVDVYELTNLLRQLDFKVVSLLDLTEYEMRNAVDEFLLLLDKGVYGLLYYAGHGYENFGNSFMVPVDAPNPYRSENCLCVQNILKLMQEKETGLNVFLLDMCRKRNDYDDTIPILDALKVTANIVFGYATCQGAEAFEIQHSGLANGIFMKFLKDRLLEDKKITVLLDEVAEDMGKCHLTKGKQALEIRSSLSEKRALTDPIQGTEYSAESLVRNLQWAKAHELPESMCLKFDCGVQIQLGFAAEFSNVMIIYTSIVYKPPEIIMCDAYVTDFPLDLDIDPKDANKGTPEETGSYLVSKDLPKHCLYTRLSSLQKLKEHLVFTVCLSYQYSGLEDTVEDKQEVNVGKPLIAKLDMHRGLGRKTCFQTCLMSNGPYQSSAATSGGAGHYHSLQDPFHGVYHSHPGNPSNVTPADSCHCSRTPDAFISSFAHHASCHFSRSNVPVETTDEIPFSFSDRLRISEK
SMILES,IC50 [1] [µM],IC50 (Human IL2 promoter) [µM]
"COCC(OC)c1c(NC(=O)Nc2cnc(-n3nccn3)c(C(F)(F)F)c2)cnc2cc(Cl)nn12 (stereo not shown) [Example 108, 1-(6-(2H-1,2,3-triazol-2-yl)-5-(trifluoromethyl)pyridin-3-yl)-3-(2-chloro-7-(1,2-dimethoxyethyl)pyrazolo[1,5-a]pyrimidin-6-yl)urea]",0.008,0.052
"COC[C@@H](OC)c1c(NC(=O)Nc2cnc(-n3nccn3)c(Cl)c2)cnc2cc(Cl)nn12 [Example 127, (S)-1-(5-chloro-6-(2H-1,2,3-triazol-2-yl)pyridin-3-yl)-3-(2-chloro-7-(1,2-dimethoxyethyl)pyrazolo[1,5-a]pyrimidin-6-yl)urea]",0.009,0.078
"C[C@H](OC[C@H]1CCOC1)c1c(NC(=O)Nc2cnc(-n3nccn3)c(Cl)c2)cnc2cc(Cl)nn12 [Example 102, 1-(5-chloro-6-(2H-1,2,3-triazol-2-yl)pyridin-3-yl)-3-(2-chloro-7-((S)-1-(((S)-tetrahydrofuran-3-yl)methoxy)ethyl)pyrazolo[1,5-a]pyrimidin-6-yl)urea]",0.003,0.014
"CO[C@H](C)c1c(NC(=O)Nc2cnc(-n3nccn3)c(Cl)c2)cnc2cc(Cl)nn12 [Example 46, (R)-1-(5-chloro-6-(2H-1,2,3-triazol-2-yl)pyridin-3-yl)-3-(2-chloro-7-(1-methoxyethyl)pyrazolo[1,5-a]pyrimidin-6-yl)urea]",,0.082
"COCC1(c2c(NC(=O)Nc3cncc(C(F)(F)F)c3)cnc3cc(Cl)nn23)CCCO1 (stereo not shown) [Example 106, 1-(2-chloro-7-(2-(methoxymethyl)tetrahydrofuran-2-yl)pyrazolo[1,5-a]pyrimidin-6-yl)-3-(5-(trifluoromethyl)pyridin-3-yl)urea]",0.008,0.484
"CC(C)c1c(NC(=O)Nc2cnc(-c3ccnn3C)c(Cl)c2)cnc2cc(Cl)nn12 [Example 29, 1-(5-chloro-6-(1-methyl-1H-pyrazol-5-yl)pyridin-3-yl)-3-(2-chloro-7-isopropylpyrazolo[1,5-a]pyrimidin-6-yl)urea]",0.37,
"CO[C@H](c1c(NC(=O)Nc2cnc(-n3nccn3)c(Cl)c2)cnc2cc(Cl)nn12)[C@@H](C)OC [Example 98, 1-(5-chloro-6-(2H-1,2,3-triazol-2-yl)pyridin-3-yl)-3-(2-chloro-7-((1R,2R)-1,2-dimethoxypropyl)pyrazolo[1,5-a]pyrimidin-6-yl)urea]",,0.044
"O=C(Nc1cnc(-n2nccn2)c(Cl)c1)Nc1cnc2cc(Cl)nn2c1C1CCOCC1 [Example 58, 1-(5-chloro-6-(2H-1,2,3-triazol-2-yl)pyridin-3-yl)-3-(2-chloro-7-(tetrahydro-2H-pyran-4-yl)pyrazolo[1,5-a]pyrimidin-6-yl)urea]",,0.267
"CO[C@@H](C)c1c(NC(=O)Nc2cnc(-n3nccn3)c(Cl)c2)cnc2cc(Cl)nn12 [Example 10, (S)-1-(5-chloro-6-(2H-1,2,3-triazol-2-yl)pyridin-3-yl)-3-(2-chloro-7-(1-methoxyethyl)pyrazolo[1,5-a]pyrimidin-6-yl)urea]",,0.019
"CC(C)c1c(NC(=O)Nc2cnc(-n3nccn3)c(Cl)c2)cnc2cc(Cl)nn12 [Example 21, 1-(5-chloro-6-(2H-1,2,3-triazol-2-yl)pyridin-3-yl)-3-(2-chloro-7-isopropylpyrazolo[1,5-a]pyrimidin-6-yl)urea]",,0.104
"CO[C@@H](C)c1c(NC(=O)Nc2cncc(C#N)c2)cnc2cc(Cl)nn12 [Example 8, (S)-1-(2-chloro-7-(1-methoxyethyl)pyrazolo[1,5-a]pyrimidin-6-yl)-3-(5-cyanopyridin-3-yl)urea]",,0.033
"O=C(Nc1cnc(-n2nccn2)c(Cl)c1)Nc1cnc2cc(Cl)nn2c1C1COCCN1 (stereo not shown) [Example 123, 1-(5-chloro-6-(2H-1,2,3-triazol-2-yl)pyridin-3-yl)-3-(2-chloro-7-(morpholin-3-yl)pyrazolo[1,5-a]pyrimidin-6-yl)urea]",,0.199
